Numbers after ± are expanded uncertainties.
Test: xn = mol fraction of the nth substance listed
Conditions: 101 kPa, Liquid

OCCN1CCOCC1 [4-morpholineethanol] + CCC(C)O
mass density [kg/m3]
Conditions	293.15 K	298.15 K	303.15 K	313.15 K	323.15 K
x1 = 0.0542	824.77 ± 0.83	821.68 ± 0.84	817.07 ± 0.86	809.49 ± 0.88	804.37 ± 0.9
x1 = 0.1098	843.95 ± 0.78	840.73 ± 0.79	836.08 ± 0.8	828.46 ± 0.83	823.27 ± 0.84
x1 = 0.1855	869.23 ± 0.71	865.83 ± 0.72	861.15 ± 0.74	853.47 ± 0.76	848.18 ± 0.78
x1 = 0.2431	887.71 ± 0.66	884.17 ± 0.67	879.46 ± 0.69	871.75 ± 0.71	866.4 ± 0.73
x1 = 0.2876	901.62 ± 0.63	897.97 ± 0.64	893.25 ± 0.65	885.52 ± 0.68	880.12 ± 0.69
x1 = 0.3266	913.58 ± 0.6	909.84 ± 0.61	905.11 ± 0.62	897.36 ± 0.65	891.91 ± 0.66
x1 = 0.3854	930.89 ± 0.56	927.02 ± 0.57	922.28 ± 0.58	914.51 ± 0.6	909.01 ± 0.62
x1 = 0.4277	943.01 ± 0.53	939.04 ± 0.54	934.29 ± 0.55	926.51 ± 0.58	920.97 ± 0.59
x1 = 0.4822	958.03 ± 0.5	953.95 ± 0.51	949.18 ± 0.52	941.4 ± 0.54	935.81 ± 0.56
x1 = 0.5189	967.85 ± 0.47	963.68 ± 0.48	958.92 ± 0.5	951.14 ± 0.52	945.51 ± 0.53
x1 = 0.5672	980.37 ± 0.44	976.09 ± 0.45	971.33 ± 0.47	963.55 ± 0.49	957.89 ± 0.5
x1 = 0.6044	989.72 ± 0.42	985.36 ± 0.43	980.59 ± 0.44	972.82 ± 0.46	967.14 ± 0.48
x1 = 0.6438	999.36 ± 0.39	994.93 ± 0.4	990.17 ± 0.42	982.4 ± 0.44	976.69 ± 0.46
x1 = 0.6798	1007.93 ± 0.42	1003.44 ± 0.41	998.68 ± 0.4	990.92 ± 0.42	985.19 ± 0.44
x1 = 0.7355	1020.77 ± 0.47	1016.16 ± 0.46	1011.41 ± 0.44	1003.67 ± 0.41	997.91 ± 0.41
x1 = 0.7942	1033.69 ± 0.53	1028.98 ± 0.51	1024.24 ± 0.49	1016.52 ± 0.47	1010.73 ± 0.45
x1 = 0.8427	1044.13 ± 0.57	1039.33 ± 0.55	1034.6 ± 0.54	1026.9 ± 0.51	1021.09 ± 0.49
x1 = 0.8785	1051.72 ± 0.6	1046.85 ± 0.59	1042.13 ± 0.57	1034.45 ± 0.54	1028.62 ± 0.52
x1 = 0.9235	1061.1 ± 0.6	1056.15 ± 0.63	1051.43 ± 0.61	1043.77 ± 0.58	1037.92 ± 0.56
x1 = 0.9844	1073.45 ± 0.7	1068.39 ± 0.68	1063.69 ± 0.67	1056.06 ± 0.64	1050.18 ± 0.62

OCCN1CCOCC1 [4-morpholineethanol] + CCCCO
mass density [kg/m3]
Conditions	293.15 K	298.15 K	303.15 K	313.15 K	323.15 K
x1 = 0.0652	832.8 ± 0.81	829 ± 0.82	825.1 ± 0.83	817.44 ± 0.86	809.9 ± 0.88
x1 = 0.1125	849.1 ± 0.76	845.21 ± 0.78	841.24 ± 0.79	833.54 ± 0.81	826.03 ± 0.83
x1 = 0.1865	873.74 ± 0.7	869.7 ± 0.71	865.64 ± 0.72	857.88 ± 0.75	850.45 ± 0.77
x1 = 0.2436	891.83 ± 0.65	887.69 ± 0.66	883.56 ± 0.68	875.77 ± 0.7	868.41 ± 0.72
x1 = 0.2865	905.09 ± 0.62	900.87 ± 0.63	896.69 ± 0.64	888.88 ± 0.67	881.58 ± 0.69
x1 = 0.3275	917.49 ± 0.59	913.2 ± 0.6	908.97 ± 0.61	901.14 ± 0.63	893.89 ± 0.66
x1 = 0.3852	934.26 ± 0.55	929.86 ± 0.56	925.57 ± 0.57	917.73 ± 0.6	910.57 ± 0.62
x1 = 0.4259	945.77 ± 0.52	941.31 ± 0.53	936.97 ± 0.55	929.12 ± 0.57	922.02 ± 0.59
x1 = 0.4784	960.02 ± 0.49	955.47 ± 0.5	951.09 ± 0.51	943.23 ± 0.54	936.22 ± 0.56
x1 = 0.5248	972.29 ± 0.46	967.67 ± 0.47	963.24 ± 0.48	955.38 ± 0.51	948.45 ± 0.53
x1 = 0.5649	982.5 ± 0.43	977.82 ± 0.45	973.35 ± 0.46	965.5 ± 0.48	958.65 ± 0.5
x1 = 0.6126	994.28 ± 0.4	989.52 ± 0.42	985.02 ± 0.43	977.16 ± 0.45	970.4 ± 0.47
x1 = 0.6539	1004.15 ± 0.41	999.34 ± 0.39	994.8 ± 0.41	986.96 ± 0.43	980.27 ± 0.45
x1 = 0.6898	1012.51 ± 0.44	1007.64 ± 0.42	1003.08 ± 0.41	995.25 ± 0.41	988.63 ± 0.43
x1 = 0.7353	1022.74 ± 0.48	1017.81 ± 0.46	1013.21 ± 0.45	1005.4 ± 0.42	998.88 ± 0.4
x1 = 0.7962	1035.87 ± 0.53	1030.87 ± 0.52	1026.23 ± 0.5	1018.44 ± 0.47	1012.05 ± 0.45
x1 = 0.8367	1044.36 ± 0.57	1039.31 ± 0.55	1034.64 ± 0.54	1026.87 ± 0.51	1020.56 ± 0.49
x1 = 0.8823	1053.64 ± 0.61	1048.53 ± 0.59	1043.84 ± 0.58	1036.07 ± 0.55	1029.88 ± 0.53
x1 = 0.9248	1062.23 ± 0.65	1057.07 ± 0.63	1052.35 ± 0.61	1044.62 ± 0.59	1038.5 ± 0.57
x1 = 0.9844	1073.74 ± 0.7	1068.51 ± 0.68	1063.75 ± 0.67	1056.05 ± 0.64	1050.07 ± 0.62
